Data on 26 molecules can be found in ChEMBL document CHEMBL4219169, “Sulfoximines as potent RORγ inverse agonists” (Bioorg Med Chem Lett, 2018).

One may read the logD as the decadic logarithm of the distribution of all forms, ionised or not, between an organic phase and buffer at a given pH. Low values mean a more hydrophilic compound, high ones a more lipophilic compound. In general, IC50 refers to the concentration that inhibits the measured activity by half. In general, fraction unbound refers to the share of the substance not bound to proteins or other matrix. A low value points to little free substance.

A short description of data set [1]: Lipophilicity, log D of the compound at pH 6.5 by HPLC analysis. The data set is classed as physicochemical. Particulars: buffer.
Data set [2] concerns TK6. Description: Genotoxicity in human TK6 cells incubated for 3 hrs in absence of aroclor-1254-induced rat S9 fraction followed by 27 hrs recovery period by Giemsa staining dependent optical microscopy based micronucleus test. It counts as toxicity, cell-based. To be noted: tk6, 3 h.
The nature of data set [3]: Phototoxicity against human neonatal keratinocytes assessed as cell viability preincubated for 30 mins before 5 J/cm2 UV light irradiation for 15 mins followed by treatment medium replacement with fresh culture medium after 24 hrs by neutral red dye-based assay. To be noted: 0.25 h.
For data set [4], the system named is TK6. As to the kind of experiment: Genotoxicity in human TK6 cells incubated for 27 hrs in absence of aroclor-1254-induced rat S9 fraction by Giemsa staining dependent optical microscopy based micronucleus test. The data set is classed as toxicity, cell-based. Particulars: tk6, 27 h.
Data set [5] has as its system Salmonella typhimurium. As to the kind of experiment: Genotoxicity in Salmonella typhimurium TA98 in absence of aroclor-1254-induced rat S9 fraction by Ames test. The data set is classed as toxicity, organism-based. Particulars: salmonella enterica subsp. enterica serovar typhimurium. For orientation: In the Ames test, an excess of revertant colonies over the control signals mutagenicity.

Data set [6] is described as follows: Intrinsic clearance in human hepatocytes assessed per million cells at 1 uM incubated for 5 to 90 mins by LC-MS/MS method. The data set is classed as ADME, cell-based, Hepatocyte. To be noted: read-out: CLH.
The subject of data set [7] is Salmonella typhimurium. As to the kind of experiment: Genotoxicity in Salmonella typhimurium TA100 in presence of aroclor-1254-induced rat S9 fraction by Ames test. The data set is classed as toxicity, organism-based. To be noted: salmonella enterica subsp. enterica serovar typhimurium.
Data set [8] concerns TK6. Description: Genotoxicity in human-derived p53-competent TK6 cells expressing GADD45a-dependent green fluorescent protein assessed as decrease in cell viability after 48 hrs in absence of Sprague-Dawley rat S9 fraction by FACS analysis. It counts as toxicity, cell-based. To be noted: tk6, 48 h. A general note: Flow cytometry measures light scatter and fluorescence of single cells or particles in a stream.

Data set [9] addresses T1, Nuclear receptor ROR-alpha (Homo sapiens, UniProt P35398).
T1 sequence (P35398 whole entry): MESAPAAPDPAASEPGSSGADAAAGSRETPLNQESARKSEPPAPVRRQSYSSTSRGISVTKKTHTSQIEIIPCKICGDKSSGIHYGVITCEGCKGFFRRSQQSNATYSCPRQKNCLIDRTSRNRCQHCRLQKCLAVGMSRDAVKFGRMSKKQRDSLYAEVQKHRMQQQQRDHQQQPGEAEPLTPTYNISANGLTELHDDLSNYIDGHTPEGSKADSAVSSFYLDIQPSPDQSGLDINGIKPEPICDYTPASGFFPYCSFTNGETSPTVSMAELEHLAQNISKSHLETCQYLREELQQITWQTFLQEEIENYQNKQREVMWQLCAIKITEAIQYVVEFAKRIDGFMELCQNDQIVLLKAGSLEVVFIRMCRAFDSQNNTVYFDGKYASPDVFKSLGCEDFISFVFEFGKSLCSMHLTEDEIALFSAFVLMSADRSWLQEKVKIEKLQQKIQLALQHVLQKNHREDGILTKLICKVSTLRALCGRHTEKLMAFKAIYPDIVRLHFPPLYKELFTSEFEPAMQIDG
Description: Inverse agonist activity at RORalpha (unknown origin) expressed in human HeLa-derived HG5LN cells transfected with the GAL4 DNA-binding domain fused to the RORalpha ligand-binding domain assessed as inhibition of transcriptional activity after 18 hrs by luminescence-based luciferase reporter gene assay. The data set is classed as cell-based. (In general: In a reporter assay the amount or activity of a reporter protein is the signal.)

Data set [10] relates to Salmonella typhimurium. As to the kind of experiment: Genotoxicity in Salmonella typhimurium TA98 in presence of aroclor-1254-induced rat S9 fraction by Ames test. The data set is classed as toxicity, organism-based. Particulars: salmonella enterica subsp. enterica serovar typhimurium.
Data set [11] deals with TK6. As to the kind of experiment: Genotoxicity in human-derived p53-competent TK6 cells expressing GADD45a-dependent green fluorescent protein assessed as decrease in cell viability after 48 hrs in presence of Sprague-Dawley rat S9 fraction by FACS analysis. To be noted: s9, 48 h. It counts as toxicity, cell-based.
Data set [12] can be described thus: Fraction unbound in human plasma at 5 uM incubated for 4 hrs at 37 degC by LC-MS/MS method. The data set is classed as ADME, cell-free.
Data set [13] concerns Salmonella typhimurium. As to the kind of experiment: Genotoxicity in Salmonella typhimurium TA100 in absence of aroclor-1254-induced rat S9 fraction by Ames test. The data set is classed as toxicity, organism-based. To be noted: salmonella enterica subsp. enterica serovar typhimurium.
Data set [14] deals with TK6. Description: Genotoxicity in human TK6 cells incubated for 3 hrs in presence of aroclor-1254-induced rat S9 fraction followed by 27 hrs recovery period by Giemsa staining dependent optical microscopy based micronucleus test. It counts as toxicity, cell-based. Particulars: s9, 3 h.
The subject of another data set is Mus musculus. Description: In vivo inverse agonist activity at RORgamma in wild type BALB/c ByJ Rj mouse model of imiquimod-induced skin inflammation model assessed as attenuation of imiquimod-induced epidermal hyperplasia at 0.01% administered topically daily for 7 days dosed 2 hrs before imiquimod administration measured on day 8 by hematoxylin and eosin staining-based histological analysis. The data set is classed as functional.

As for `CCc1ccc(N(CC(C)C)S(=O)(=O)c2ccc(OC3CCN(C(C)=O)CC3)c(S(C)(=N)=O)c2)cc1` (stereo not drawn), the logD in data set [1] is 3.8.

In data set [1], `CCc1ccc(N(CC(C)C)S(=O)(=O)c2ccc(OCC3CCOCC3)c(CC(=O)O)c2)cc1` yielded a logD of 3.1.

Turning to `CCc1ccc(N(CC(C)C)S(=O)(=O)c2ccc(OCC3CCOCC3)c(CO)c2)cc1` [GSK2981278], the logD in [1] was 5.9.

Take `CCc1ccc(N(CC(C)C)S(=O)(=O)c2ccc(NCC3(C)CCOCC3)c(S(C)(=N)=O)c2)cc1` (stereo not drawn): in data set [1], the logD turned out to be 5.7.

`CCc1ccc(N(CC(C)C)S(=O)(=O)c2ccc(OCC3CCOCC3)c(S(C)(=O)=NC)c2)cc1` (stereo not drawn) came in with a logD in data set [1] of 5.2.

As for `CCc1ccc(N(CC(C)C)S(=O)(=O)c2ccc(NCC3(CC)CCOCC3)c(S(C)(=N)=O)c2)cc1` (stereo not drawn), in data set [1], the logD was 6.1.

Turning to `CCc1ccc(N(CC(C)C)S(=O)(=O)c2ccc(OCC3CCOCC3)cc2)cc1`, the logD in data set [1] was 7.2.

`CCc1ccc(N(CC(C)C)S(=O)(=O)c2ccc(NCC3(F)CCOCC3)c(S(C)(=N)=O)c2)cc1` (stereo not drawn) displayed a logD in data set [1] of 5.2.

In the case of `CCc1ccc(N(CC(C)C)S(=O)(=O)c2ccc(OCC3CCOCC3)c([S@](C)(=N)=O)c2)cc1`, the Activity result (in the data set on TK6 [2]; in [3]; in the data set on TK6 [4]; in the data set on Salmonella typhimurium [5]; with Salmonella typhimurium [7]; in the data set with TK6 [8]) was “Non-Toxic” in each case. Also, the Activity entry in the data set with Salmonella typhimurium [10], with TK6 [11], with Salmonella typhimurium [13] and in the data set on TK6 [14] was “Non-Toxic” each time. In addition, the hepatocyte CLint at 1 µM in data set [6] came out at 160 µL/min/1e6 cells. Besides, the IC50 in data set [9] is > 10 µM. Also, the fraction unbound at 4 h, 5 µM in data set [12] was 0.049.

Molecule `CCc1ccc(N(CC(C)C)S(=O)(=O)c2ccc(OCC3CCOCC3)c(CC#N)c2)cc1` gave a logD in data set [1] of 6.5.

In data set [1], `CCc1ccc(N(CC(C)C)S(=O)(=O)c2ccc(NCC3CCOCC3)c(S(C)(=N)=O)c2)cc1` (stereo not drawn) displayed a logD of 5.3.

Turning to `CCc1ccc(N(CC(C)C)S(=O)(=O)c2ccc(OC3CCOCC3)c(S(C)(=N)=O)c2)cc1` (stereo not drawn), the logD in data set [1] is 4.4.

Turning to `CCCCC(=O)O[C@]1(C(=O)CO)[C@@H](C)C[C@H]2[C@@H]3CCC4=CC(=O)C=C[C@]4(C)[C@@]3(F)[C@@H](O)C[C@@]21C` [BETAMETHASONE VALERATE], the Activity in the data set with Mus musculus stood at 72%.

As for `CCc1ccc(N(CC(C)C)S(=O)(=O)c2ccc(OCC3CCOCC3)c(S(N)(=O)=O)c2)cc1`, the log distribution coefficient (logD) in data set [1] was 5.3.

On to `CCc1ccc(N(CC(C)C)S(=O)(=O)c2ccc(OCC3CCOCC3)c(S(C)(=N)=O)c2)cc1` (stereo not drawn), for which the logD in data set [1] was determined as 4.6.

In data set [1], `CCc1ccc(N(CC(C)C)S(=O)(=O)c2ccc(OCC3CCOCC3)c(S(=N)(=O)CC)c2)cc1` (stereo not drawn) gave a logD of 5.

Regarding `CCc1ccc(N(CC(C)C)S(=O)(=O)c2ccc(N3CCN(C(C)=O)CC3)c(S(C)(=N)=O)c2)cc1` (stereo not drawn), the logD in [1] was determined as 3.8.

In turn, `CCc1ccc(N(CC(C)C)S(=O)(=O)c2ccc(NCC3(O)CCOCC3)c(S(C)(=N)=O)c2)cc1` (stereo not drawn) came in with a logD in data set [1] of 4.1.

In [1], `CCc1ccc(N(CC(C)C)S(=O)(=O)c2ccc(N(C)CC3CCOCC3)c(S(C)(=N)=O)c2)cc1` (stereo not drawn) came in with a logD of 5.2.

As for `CCc1ccc(N(CC(C)C)S(=O)(=O)c2ccc(OCC3CCOCC3)c(CC(N)=O)c2)cc1`, the logD in [1] is 4.8.

In data set [1], `CCc1ccc(N(CC(C)C)S(=O)(=O)c2ccc(N[C@H](C)C3CCOCC3)c(S(C)(=N)=O)c2)cc1` (stereo partly drawn) registered a logD of 5.6.

Take `CCc1ccc(N(CC(C)C)S(=O)(=O)c2ccc(N[C@@H](C)C3CCOCC3)c(S(C)(=N)=O)c2)cc1` (stereo partly drawn): the logD in [1] was found to be 5.6.

On to `CCc1ccc(N(CC(C)C)S(=O)(=O)c2ccc(OCC3CCOCC3)c(S(C)(=O)=O)c2)cc1`, for which, in [1], the logD was determined as 5.8.

`CCc1ccc(N(CC(C)C)S(=O)(=O)c2ccc(OC3CCN(S(C)(=O)=O)CC3)c(S(C)(=N)=O)c2)cc1` (stereo not drawn) returned a logD in data set [1] of 4.6.

Consider `CCc1ccc(N(CC(C)C)S(=O)(=O)c2ccc(CCN3CCOCC3)c(S(C)(=N)=O)c2)cc1` (stereo not drawn), for which, in data set [1], the logD turned out to be 4.

In turn, `CCc1ccc(N(CC(C)C)S(=O)(=O)c2ccc(OCC3CCOCC3)c([S+](C)[O-])c2)cc1` (stereo not drawn) yielded a logD in data set [1] of 5.4.
